Like-named read-outs stand apart in the source and are kept apart here.
Columns and labels:
[1] = molecular target: T1, human recombinant 5-HT2A receptor (Homo sapiens, UniProt P28223); test: Test Example 1-2: 5-HT2A receptor binding inhibition test ([3H]-Ketanserin; non-specific ligand Ketanserin)
T1 construct: expressed in transfected cells; host or cells: Jump-In HEK cells (membrane preparation)
Method in brief: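 Ki values were derived from dose-response inhibition of [3H]-ketanserin binding; nonspecific binding was set with 500 µmol/L ketanserin, and Kd was set for each membrane lot from Scatchard saturation plots. Incubation lasted 1.5 h at room temperature (25 °C). Bound radioligand was harvested on Tris-HCl (pH 7.4)-presoaked filters and counted.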

[2] = molecular target: T2, human recombinant 5-HT2C receptor (Homo sapiens, UniProt P28335); test: Test Example 2: 5-HT2C receptor binding inhibition test ([3H]-Mesulergine; non-specific ligand Serotonin HCl); conditions: human serotonin 5-HT2C receptor binding activity
T2 construct: expressed in transfected cells; host or cells: Jump-In HEK cells (membrane preparation)
T2 sequence (P28335 33-458): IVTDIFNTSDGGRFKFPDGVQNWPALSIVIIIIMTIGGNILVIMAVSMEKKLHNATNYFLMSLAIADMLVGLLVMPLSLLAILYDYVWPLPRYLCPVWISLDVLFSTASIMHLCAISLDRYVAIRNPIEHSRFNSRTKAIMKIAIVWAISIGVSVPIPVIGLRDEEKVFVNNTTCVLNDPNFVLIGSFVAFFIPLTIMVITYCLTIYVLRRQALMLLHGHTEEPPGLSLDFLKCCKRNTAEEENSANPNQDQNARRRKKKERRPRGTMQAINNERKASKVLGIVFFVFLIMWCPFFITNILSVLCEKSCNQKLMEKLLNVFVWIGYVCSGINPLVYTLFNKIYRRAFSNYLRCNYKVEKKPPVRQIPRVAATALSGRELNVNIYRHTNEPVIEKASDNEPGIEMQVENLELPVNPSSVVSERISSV
Method in brief: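 Ki values come from dose-response curves of [3H]-mesulergine displacement from human 5-HT2C membranes after 2 h at 37°C, scored by scintillation counting of filter-bound radioactivity. Serotonin HCl (500 µmol/L) set non-specific binding; Kd per membrane lot was taken from Scatchard plots.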

[3] = [3H]-Ketanserin, non-specific binding with 500 µmol/L Ketanserin, room temperature (25°C), 1.5 hours, read-out: h 5-HT2A Ki

T1 sequence (P28223 whole entry): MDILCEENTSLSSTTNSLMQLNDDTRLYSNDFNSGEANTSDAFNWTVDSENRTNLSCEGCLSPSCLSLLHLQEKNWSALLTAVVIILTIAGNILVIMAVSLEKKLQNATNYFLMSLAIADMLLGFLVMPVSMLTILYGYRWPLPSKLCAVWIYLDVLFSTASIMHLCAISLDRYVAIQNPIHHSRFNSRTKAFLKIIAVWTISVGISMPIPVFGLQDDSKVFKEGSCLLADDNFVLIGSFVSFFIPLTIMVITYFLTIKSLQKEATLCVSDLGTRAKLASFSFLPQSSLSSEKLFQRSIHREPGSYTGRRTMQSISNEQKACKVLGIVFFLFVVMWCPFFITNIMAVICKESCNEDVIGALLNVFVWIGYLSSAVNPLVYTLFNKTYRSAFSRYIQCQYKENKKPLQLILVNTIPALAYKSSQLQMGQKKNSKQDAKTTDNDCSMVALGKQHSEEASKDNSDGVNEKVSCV

SMILES	Ki [1, 3]	Ki [2]	Ki [1]
Cc1cc(CO)ccc1-c1cc(Nc2ncc(C(F)(F)F)cc2F)ncc1OCCO [Compound I-372]	0.847 nM	9.14 nM	
Cn1ncc(Br)c1-c1cc(Nc2ncc(C3CC3)cn2)ncc1OCCO [Compound I-281]	0.668 nM	6.55 nM	
Cc1nc(C(F)F)nc(C)c1-c1cc(Nc2ncc(C(F)(F)F)cc2Cl)ncc1OCCO [Compound I-223]	0.877 nM	9.21 nM	
COCc1nc(C)c(-c2cc(Nc3ncc(-c4nc(C(F)(F)F)cs4)cc3Cl)ncc2OCCO)c(C)n1 [Compound I-328]	1.1 nM	0.499 nM	
COCc1nc(C)c(-c2cc(Nc3ncc(OCC(F)(F)F)cc3Cl)ncc2OCCO)c(C)n1 [Compound I-232]	8.27 nM	6.06 nM	
COCc1nc(C)c(-c2cc(Nc3ncc(OCC(F)(F)C(F)(F)F)cc3Cl)ncc2OCCO)c(C)n1 [Compound I-233]	4.42 nM	1.76 nM	
COCCOc1nc(C)c(-c2cc(Nc3ncc(C(F)(F)F)cc3Cl)ncc2OCCO)c(C)n1 [Compound I-213]	1.26 nM	4.07 nM	
Cc1nc(C)c(-c2cc(Nc3ncc(-c4ccc(C(F)(F)F)cc4)cn3)ncc2OCCO)c(C)n1 [Compound I-319]	0.65 nM	2.02 nM	
CCc1ncccc1-c1cc(Nc2ncc(C(F)(F)F)cc2F)ncc1OCCO [Compound I-367]	1.97 nM	64.9 nM	
COCc1nc(C)c(-c2cc(Nc3ncc(-n4ccc(C(F)(F)F)n4)cc3Cl)ncc2OCCO)c(C)n1 [Compound I-325]	1.6 nM	1.17 nM	
Cn1ncc(Br)c1-c1cc(Nc2ccc(OC(F)(F)F)cn2)ncc1OCCO [Compound I-277]		0.217 nM	0.186 nM
Cc1nc(C)c(-c2cc(Nc3ccc(-c4ccc(C(F)(F)F)nc4)cn3)ncc2OCCO)c(C)n1 [Compound I-315]	1.21 nM	1.05 nM	
COCc1nc(C)c(-c2cc(Nc3ncc(-c4ncc(OC)cn4)cc3Cl)ncc2OCCO)c(C)n1 [Compound I-253]	2.74 nM	4.42 nM	
Cc1nc(C2CCO2)nc(C)c1-c1cc(Nc2ncc(C(F)(F)F)cc2Cl)ncc1OCCO (racemic) [Compound I-216]	1.81 nM	5.53 nM	
COCCc1nc(C)c(-c2cc(Nc3ncc(C(F)(F)F)cc3Cl)ncc2OCCO)c(C)n1 [Compound I-217]	1.74 nM	2.66 nM	
COCc1nc(C)c(-c2cc(Nc3ncc(-c4ccn(C(F)F)n4)cc3Cl)ncc2OCCO)c(C)n1 [Compound I-326]	6.26 nM	7.23 nM	
Cc1nc(C)c(-c2nc(Nc3ccc(-c4ccc(C(F)(F)F)nc4)cn3)c(F)cc2OCCO)c(C)n1 [Compound I-363]	2.32 nM	2.76 nM	
Cc1nc(C)c(-c2nc(Nc3ccc(OC(F)(F)F)c(C)n3)c(F)cc2OCCO)c(C)n1 [Compound I-383]	2.57 nM	4.59 nM	
COCc1nc(C)c(-c2cc(Nc3ncc(-c4cnn(C(F)(F)F)c4)cc3Cl)ncc2OCCO)c(C)n1 [Compound I-243]	3.58 nM	2.53 nM	
Cn1ncc(Br)c1-c1cc(Nc2ncc(F)cn2)c(F)cc1OCCO [Compound I-165]	0.389 nM	9.78 nM	
COCc1nc(C)c(-c2cc(Nc3ncc(C(F)(F)F)cc3Cl)ncc2OCCO)c(C)n1 [Compound I-201]	2.26 nM	2.54 nM	
Cc1nc(OCC(F)F)nc(C)c1-c1cc(Nc2ncc(C(F)(F)F)cc2Cl)ncc1OCCO [Compound I-211]	0.706 nM	1.89 nM	
Cc1nc(C)c(-c2cc(Nc3ncc(C(F)(F)F)cc3C)ncc2OCCO)c(C)n1 [Compound I-389]	1.2 nM	2.41 nM	
COCc1nc(C)c(-c2nc(Nc3ccc(C4CCC4)cn3)c(F)cc2OCCO)c(C)n1 [Compound I-193]	3.43 nM	3.76 nM	
COc1cnc(Nc2cc(-c3c(Cl)cnn3C)c(OCCO)cc2F)nc1 [Compound I-169]	0.738 nM	9.97 nM	

The next lines start with results.

Ki [1, 3]	Ki [2]	SMILES	Ki [1]
0.576 nM	5.26 nM	Cn1ncc(Br)c1-c1cc(Nc2ncc(Cl)cn2)c(Cl)cc1OCCO [Compound I-398]	
0.413 nM	1.8 nM	Cn1ncc(Br)c1-c1cc(Nc2ncc(C(F)(F)F)cn2)c(Cl)cc1OCCO [Compound I-397]	
0.42 nM	2.12 nM	Cn1ncc(Cl)c1-c1cc(Nc2ncc(C(F)(F)F)cc2F)c(Cl)cc1OCCO [Compound I-409]	
0.395 nM	2.37 nM	Cn1ncc(Br)c1-c1nc(Nc2ccc(OC(F)F)cn2)c(F)cc1OCCO [Compound I-294]	
0.603 nM	5.78 nM	O=C1NCc2c1cccc2-c1cc(Nc2ncc(C(F)(F)F)cc2F)ncc1OCCO [Compound I-358]	
0.271 nM	1.22 nM	Cc1cnn(C)c1-c1cc(Nc2ncc(OC(F)(F)F)cc2Cl)ncc1OCCO [Compound I-183]	
0.212 nM	5.45 nM	Cn1ncc(F)c1-c1cc(Nc2ccc(C(F)(F)F)cn2)c(F)cc1OCCO [Compound I-170]	
0.226 nM	5.08 nM	Cn1ncc(Cl)c1-c1nc(Nc2ccc(C(F)(F)F)cn2)c(F)cc1OCCO [Compound I-385]	
0.463 nM	2.48 nM	Cn1ncc(Br)c1-c1cc(Nc2nc3ccc(F)cc3[nH]2)c(F)cc1OCCO [Compound I-406]	
0.312 nM	1.58 nM	Cn1ncc(Br)c1-c1nc(Nc2ccc(OC(F)(F)F)cn2)c(F)cc1OCCO [Compound I-280]	
0.257 nM	3.12 nM	Cn1ncc(Br)c1-c1nc(Nc2ccc(Cl)c(F)c2)ncc1OCCO [Compound I-345]	
0.183 nM	2.9 nM	Cn1ncc(C#N)c1-c1cc(Nc2ncc(OC(F)(F)F)cc2Cl)ncc1OCCO [Compound I-187]	
0.267 nM	2.41 nM	Cc1cnn(C)c1-c1nc(Nc2ccc(C(F)(F)F)cc2)c(F)cc1OCCO [Compound I-283]	
0.26 nM	6.63 nM	Cn1ncc(Br)c1-c1nc(Nc2ccc(Cl)c(Cl)c2)ncc1OCCO [Compound I-344]	
0.211 nM	0.849 nM	Cn1ncc(Br)c1-c1cc(Nc2ccc(Cl)cn2)c(Cl)cc1OCCO [Compound I-401]	
0.28 nM	0.266 nM	Cn1ncc(Br)c1-c1cc(Nc2ncc(OC(F)(F)F)cc2F)ncc1OCCO [Compound I-287]	
0.423 nM	16.4 nM	Cn1ncc(Br)c1-c1cc(Nc2nc3ccccc3o2)ncc1OCCO [Compound I-291]	

Ki [1, 3]	Ki [2]	SMILES	Ki [1]
0.259 nM	3.67 nM	Cc1cnn(C)c1-c1cc(Nc2ccc(OC(F)(F)F)cn2)ncc1OCCO [Compound I-293]	
0.366 nM	7.66 nM	Cn1ncc(Br)c1-c1nc(Nc2nc3ccc(F)cc3s2)c(F)cc1OCCO [Compound I-388]	
0.305 nM	3.63 nM	Cn1ncc(Cl)c1-c1cc(Nc2ncc(OCC(F)F)cc2F)ncc1OCCO [Compound I-321]	
0.217 nM	0.663 nM	Cn1ncc(C#N)c1-c1cc(Nc2ccc(-c3ccc(Cl)cc3)cn2)ncc1OCCO [Compound I-189]	
0.268 nM	1.91 nM	Cc1cc(C(F)(F)F)cnc1Nc1cc(-c2c(C)cnn2C)c(OCCO)cn1 [Compound I-226]	
0.163 nM	7.79 nM	Cc1cnn(C)c1-c1nc(Nc2ccc(OC(F)(F)F)cc2)ncc1OCCO [Compound I-356]	
0.475 nM	4.75 nM	CC(C)Oc1ccc(Nc2cc(-c3c(Br)cnn3C)c(OCCO)cn2)nc1 [Compound I-182]	
0.525 nM	0.167 nM	COCc1nc(C)c(-c2cc(Nc3ncc(-c4ccc(Cl)c(F)c4)cc3Cl)ncc2OCCO)c(C)n1 [Compound I-234]	
0.24 nM	1.7 nM	Cc1cc(OC(F)(F)F)ccc1Nc1ncc(OCCO)c(-c2c(Br)cnn2C)n1 [Compound I-346]	
0.271 nM	0.352 nM	Cn1ncc(Br)c1-c1cc(Nc2ncc(OC(F)F)cc2F)ncc1OCCO [Compound I-299]	
0.52 nM	0.36 nM	COCc1nc(C)c(-c2cc(Nc3ncc(-c4ccc(F)c(Cl)c4)cc3Cl)ncc2OCCO)c(C)n1 [Compound I-255]	
0.181 nM	1.87 nM	Cn1ncc(C#N)c1-c1cc(Nc2ccc(-c3ccc(F)cc3)cn2)ncc1OCCO [Compound I-188]	
0.252 nM	4.82 nM	Cn1ncc(Cl)c1-c1cc(Nc2ncc(OC(F)(F)F)cn2)ncc1OCCO [Compound I-312]	
0.194 nM	0.608 nM	Cc1nc(C)c(-c2cc(Nc3ccc(-c4ccc(Cl)cc4)cn3)ncc2OCCO)c(C)n1 [Compound I-310]	
0.242 nM	1.77 nM	Cn1ncc(Br)c1-c1nc(Nc2ccc(C(F)(F)F)c(Cl)c2)ncc1OCCO [Compound I-351]	
0.226 nM	0.748 nM	Cn1ncc(Br)c1-c1nc(Nc2ccc(C(F)(F)F)cc2)ncc1OCCO [Compound I-336]	
0.453 nM	6.92 nM	Cc1nc(C)c(-c2cc(Nc3ccc(-c4ccc(F)cc4)cn3)ncc2O[C@H](C)CO)c(C)n1 [Compound I-317]	
